Reference: US20110165578A1, “METHODS FOR DETECTING AND QUANTIFYING OVERSULFATED GLYCOSAMINOGLYCANS” (priority 2008, published 2011)

Assays:
Taq polymerase = biological target: T1, Taq polymerase (Thermus aquaticus, UniProt P19821); assay: Taq polymerase inhibition by Taqman real time PCR (gene amplification, CT values); type: biochemical; conditions: for Taq polymerase activity / 18S amplification: spiked into heparin and treated with heparinase; for 18S amplification: same conditions; for gene amplification (polymerase activity) after treatment with heparinase: heparinase 2 hours at room temperature, OS-CS 30 ng, heparin 25 mU of lot C1 (FIG. 2B)
T1 construct: purchased ABI (Applied Biosystems)
T1 sequence (P19821 whole entry): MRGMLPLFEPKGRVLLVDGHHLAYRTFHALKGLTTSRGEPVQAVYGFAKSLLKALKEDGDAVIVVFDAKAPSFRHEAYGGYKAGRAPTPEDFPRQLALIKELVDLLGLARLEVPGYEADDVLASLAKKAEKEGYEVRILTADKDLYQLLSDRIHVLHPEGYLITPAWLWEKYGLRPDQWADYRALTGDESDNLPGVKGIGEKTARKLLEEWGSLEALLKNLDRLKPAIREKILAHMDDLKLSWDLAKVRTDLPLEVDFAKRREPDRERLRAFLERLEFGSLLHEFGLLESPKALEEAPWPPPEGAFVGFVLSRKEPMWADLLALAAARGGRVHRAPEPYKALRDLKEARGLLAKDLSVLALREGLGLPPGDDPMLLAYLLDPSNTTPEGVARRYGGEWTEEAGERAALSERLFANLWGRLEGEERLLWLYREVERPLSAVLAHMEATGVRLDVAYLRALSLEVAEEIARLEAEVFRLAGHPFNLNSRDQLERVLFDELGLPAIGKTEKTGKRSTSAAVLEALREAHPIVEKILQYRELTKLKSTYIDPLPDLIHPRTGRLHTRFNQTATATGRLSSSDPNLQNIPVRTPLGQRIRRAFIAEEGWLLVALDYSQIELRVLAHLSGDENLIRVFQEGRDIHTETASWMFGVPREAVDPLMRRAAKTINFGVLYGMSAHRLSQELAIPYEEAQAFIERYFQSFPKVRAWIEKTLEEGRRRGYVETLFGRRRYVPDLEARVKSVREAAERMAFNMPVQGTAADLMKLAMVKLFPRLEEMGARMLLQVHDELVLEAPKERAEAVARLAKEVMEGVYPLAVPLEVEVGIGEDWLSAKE
Method: Heparinase treatment: Heparin was treated with heparinase I (1:1 unit:unit reaction unless otherwise noted) for 2 hours at 25° C. in a buffer containing 4 mM Tris-HCl pH 7.5, 0.8 mM CaCl, 10 mM NaCl, and 20 U of RNase inhibitor (ABI). After treatment, the heparin was diluted to a final volume of 50 μl and serial dilutions were prepared in DEPC water as specified. Where indicated, other GAGs and oversulfated GAGs (dermatan sulfate, chondroitin sulfate, and heparan sulfate) were treated with heparinase under the same conditions as described above.
Screening Assay: cDNA was generated using total RNA from MDA-MB-231 human breast cancer cell line extracted using Trizol reagent (Invitrogen, Carlsbad, Calif.) as per manufacturer's instructions. For each cDNA reaction 1 μg total RNA was reverse transcribed using High Capacity cDNA Reverse Transcription Kit (Applied Biosystems, Foster City Calif.) in a volume of 20 μl and further diluted in DEPC water to 100 μl final volume. The concentration of cDNA was determined using Quant-iT OliGreen ssDNA Reagent (Invitrogen). For each Taqman® reaction, 25 ng of cDNA in a 2.5 μl volume were mixed with 2.5 μl of each dilution of heparinase-treated heparin or hypersulfated GAGs and then subjected to real time PCR using Taqman® Gene Expression assay for human 18S rRNA (20×) and 2× Universal PCR master mix (ABI) in a 25 μl reaction. Amplification levels of 18S are expressed as CT values. CT values represent the cycle at which amplification of a target gene is first detected. The amplification was analyzed using manual settings with a threshold value of 0.1 and the SDS2.3 software from ABI. […] Quantification of the oversulfated GAGs was performed by establishing a cutoff at the minimum concentration of synthetic OS-CS that completely blocks Taq polymerase (500 pg) and tittering all the samples until the activity of Taq polymerase was restored.
Real time-PCR (Taqman® PCR) is a highly sensitive method for detecting changes in gene expression. Gene amplification depends on a thermostable DNA polymerase from Thermus aquaticus (Taq pol). […] Shown in FIG. 1 are the levels of 18S amplification from 25 ng cDNA derived from MDA-MB-231 cells as determined by Taqman® PCR. While the 18S rRNA is used here, any RNA or DNA template is suitable. Addition of progressively higher amounts of heparin induces a corresponding reduction in Taq polymerase activity that can be monitored by assessing 18S cDNA amplification. […] Treatment of heparin with 1 unit of heparinase for 2 hrs at 25° C. overcomes the blocking activity of up to 50 mU of heparin (FIG. 1A).
To compare the use of different template sequences to measure the inhibition of Taq polymerase activity by oversulfated GAGs, heparin preparations were processed and RNA was isolated as detailed in Example 1, except that cDNAs were generated and amplified from the Actin B and GAPDH RNA sequences, in addition to the 18S rRNA.
Table 1 compares the effects of different oversulfated GAGs on the amplification of 18S, Actin B, and GAPDH sequences by Taq polymerase, as shown by mean cycle thresholds (CT) of amplification detection. The CT value indicating no inhibition of Taq polymerase activity varied slightly by template, but was maximally <20. […] Addition of progressively higher amounts of over sulfated chondroitin sulfate (OS-CS), oversulfated dermatan sulfate (OS-DS), and oversulfated heparan sulfate (OS-HS) to cDNA induced a corresponding reduction in Taq polymerase amplification of 18S, Actin B, and GAPDH.

porcine model = conditions: 5 mg/kg i.v. in bolus; cited from earlier work
[1] = any concentration tested (0-125 ng)

## Chondroitin sulfate type A [CS-A]
Taq polymerase; [1]
  Taq polymerase activity: did not inhibit

## oversulfated dermatan sulfate [OS-DS]
Taq polymerase; 18S template, 0.3 ng
  mean cycle threshold (CT) of amplification detection: 14.13
Taq polymerase; 18S template, 0.9 ng
  mean cycle threshold (CT) of amplification detection: 18.29
Taq polymerase; 18S template, 2.7 ng
  mean cycle threshold (CT) of amplification detection: 40.00
Taq polymerase; 18S template, 8.3 ng
  mean cycle threshold (CT) of amplification detection: 40.00
Taq polymerase; 18S template, 25 ng
  mean cycle threshold (CT) of amplification detection: 40.00
Taq polymerase; Actin B template, 0.3 ng
  mean cycle threshold (CT) of amplification detection: 25.45
Taq polymerase; Actin B template, 0.9 ng
  mean cycle threshold (CT) of amplification detection: 31.85
Taq polymerase; Actin B template, 2.7 ng
  mean cycle threshold (CT) of amplification detection: 40.00
Taq polymerase; Actin B template, 8.3 ng
  mean cycle threshold (CT) of amplification detection: 40.00
Taq polymerase; Actin B template, 25 ng
  mean cycle threshold (CT) of amplification detection: 40.00
Taq polymerase; GAPDH template, 0.3 ng
  mean cycle threshold (CT) of amplification detection: 24.76
Taq polymerase; GAPDH template, 0.9 ng
  mean cycle threshold (CT) of amplification detection: 39.12
Taq polymerase; GAPDH template, 2.7 ng
  mean cycle threshold (CT) of amplification detection: 40.00
Taq polymerase; GAPDH template, 8.3 ng
  mean cycle threshold (CT) of amplification detection: 40.00
Taq polymerase; GAPDH template, 25 ng
  mean cycle threshold (CT) of amplification detection: 40.00
Taq polymerase
  18S amplification: significantly reduced

## Heparan sulfate [HS]
Taq polymerase; 18S template, 8.3 ng
  mean cycle threshold (CT) of amplification detection: 13.62
Taq polymerase; 18S template, 25 ng
  mean cycle threshold (CT) of amplification detection: 13.66
Taq polymerase; 18S template, 62.5 ng
  mean cycle threshold (CT) of amplification detection: 13.69
Taq polymerase; 18S template, 125 ng
  mean cycle threshold (CT) of amplification detection: 13.96
Taq polymerase; 18S template, 250 ng
  mean cycle threshold (CT) of amplification detection: 14.36
Taq polymerase; Actin B template, 25 ng
  mean cycle threshold (CT) of amplification detection: 18.36
Taq polymerase; GAPDH template, 8.3 ng
  mean cycle threshold (CT) of amplification detection: 17.68
Taq polymerase; GAPDH template, 25 ng
  mean cycle threshold (CT) of amplification detection: 18.37
Taq polymerase; at comparable concentrations
  Taq polymerase amplification of any of the tested templates (18S, Actin B, GAPDH): did not inhibit
Taq polymerase; [1]
  Taq polymerase activity: did not inhibit

## heparin
Taq polymerase; 1 unit of heparinase, 2 hrs at 25° C., 18S (FIG. 1A)
  amount of heparin whose blocking activity is overcome by heparinase treatment: up to 50 mU
Taq polymerase
  gene amplification (polymerase activity) after treatment with heparinase: restores gene amplification

## oversulfated heparan sulfate [OS-HS]
Taq polymerase; 18S template, 0.3 ng
  mean cycle threshold (CT) of amplification detection: 14.49
Taq polymerase; 18S template, 0.9 ng
  mean cycle threshold (CT) of amplification detection: 26.00
Taq polymerase; 18S template, 2.7 ng
  mean cycle threshold (CT) of amplification detection: 40.00
Taq polymerase; 18S template, 8.3 ng
  mean cycle threshold (CT) of amplification detection: 40.00
Taq polymerase; 18S template, 25 ng
  mean cycle threshold (CT) of amplification detection: 40.00
Taq polymerase; Actin B template, 0.3 ng
  mean cycle threshold (CT) of amplification detection: 27.12
Taq polymerase; Actin B template, 0.9 ng
  mean cycle threshold (CT) of amplification detection: 40.00
Taq polymerase; Actin B template, 2.7 ng
  mean cycle threshold (CT) of amplification detection: 40.00
Taq polymerase; Actin B template, 8.3 ng
  mean cycle threshold (CT) of amplification detection: 40.00
Taq polymerase; GAPDH template, 0.3 ng
  mean cycle threshold (CT) of amplification detection: 25.98
Taq polymerase; GAPDH template, 0.9 ng
  mean cycle threshold (CT) of amplification detection: 40.00
Taq polymerase; GAPDH template, 2.7 ng
  mean cycle threshold (CT) of amplification detection: 40.00
Taq polymerase; GAPDH template, 8.3 ng
  mean cycle threshold (CT) of amplification detection: 40.00
Taq polymerase; GAPDH template, 25 ng
  mean cycle threshold (CT) of amplification detection: 40.00
Taq polymerase
  18S amplification: significantly reduced

## Chondroitin sulfate E [CS-E]
Taq polymerase; highest concentration tested (125 ng)
  Taq polymerase activity: trace of inhibitory effect

## dermatan sulfate [DS]
Taq polymerase; [1]
  Taq polymerase activity: did not inhibit

## oversulfated chondroitin sulfate [OS-CS]
Taq polymerase; 18S template, 25 ng cDNA (FIG. 1C)
  amount that completely blocked Taq polymerase mediated 18S cDNA amplification: 500 pg
Taq polymerase; 18S template, 0.08 ng added to cDNA
  mean cycle threshold (CT) of amplification detection: 13.81
Taq polymerase; 18S template, 0.25 ng
  mean cycle threshold (CT) of amplification detection: 14.38
Taq polymerase; 18S template, 0.5 ng
  mean cycle threshold (CT) of amplification detection: 18.89
Taq polymerase; 18S template, 0.75 ng
  mean cycle threshold (CT) of amplification detection: 31.20
Taq polymerase; 18S template, 1 ng
  mean cycle threshold (CT) of amplification detection: 40.00
Taq polymerase; 18S template, 1.25 ng
  mean cycle threshold (CT) of amplification detection: 40.00
Taq polymerase; Actin B template, 0.08 ng
  mean cycle threshold (CT) of amplification detection: 18.48
Taq polymerase; Actin B template, 0.25 ng
  mean cycle threshold (CT) of amplification detection: 26.89
Taq polymerase; Actin B template, 0.5 ng
  mean cycle threshold (CT) of amplification detection: 38.84
Taq polymerase; Actin B template, 0.75 ng
  mean cycle threshold (CT) of amplification detection: 40.00
Taq polymerase; Actin B template, 1 ng
  mean cycle threshold (CT) of amplification detection: 40.00
Taq polymerase; Actin B template, 1.25 ng
  mean cycle threshold (CT) of amplification detection: 40.00
Taq polymerase; GAPDH template, 0.08 ng
  mean cycle threshold (CT) of amplification detection: 17.22
Taq polymerase; GAPDH template, 0.25 ng
  mean cycle threshold (CT) of amplification detection: 25.13
Taq polymerase; GAPDH template, 0.5 ng
  mean cycle threshold (CT) of amplification detection: 40.00
Taq polymerase; GAPDH template, 0.75 ng
  mean cycle threshold (CT) of amplification detection: 40.00
Taq polymerase; GAPDH template, 1 ng
  mean cycle threshold (CT) of amplification detection: 40.00
Taq polymerase; GAPDH template, 1.25 ng
  mean cycle threshold (CT) of amplification detection: 40.00
Taq polymerase; calculated from 500 pg block and heparin potency 6.25 μg/U
  limit of detection in heparin: 0.16 % (w/w)
Taq polymerase
  gene amplification (polymerase activity) after treatment with heparinase: not
  18S amplification: significantly reduced
Porcine model
  reproduction of the clinical syndrome (adverse events): partially reproduce the clinical syndrome
